Patent US8039430B2 (University of Wollongong, priority 2005, dated 2011)
Converted amounts (≈) assume the structure as drawn. Read-outs that look alike come from different tables or passages of the source.

Legend:
[1] = tested on: Staphylococcus aureus (ATCC 6538P); assay: Antibacterial assay (MIC), Staphylococcus aureus ATCC 6538P, Luria Broth, Example 1; type: cell-based; conditions: Staphylococcus aureus, ATCC6538P, read-out: Sa (minimum inhibitory concentration)
Method: (§1) Antibacterial Assay Method for Staphylococcus aureus (ATCC 6538P) and Enterococcus faecium
Staphylococcus aureus (ATCC 6538P)
(§2) Compounds are accurately weighed out (between approx. 1-2 mg) and dissolved in either 10% methanol/water (v/v) or 100% DMSO to a final stock concentration of 5 mg/ml.
(§3) Compounds are then diluted 1/10 in H2O to a test conc of 500 ug/ml ready for immediate use, or storage at −20° C.
(§4) Grow up an o/n starter culture of Staphylococcus aureus and each VRE strain by diluting previous culture (stored at 4° C.) 1/1000 into −50 mls Luria Broth (LB) for S. aureus or Enterococossel Broth (EB) for the VRE strains.
(§5) Incubate o/n at 37° C.+shaking. • A glycerol stock (0.6 mls bacterial culture, 0.3 mls glycerol) of each strain is kept at −80° C. if needed. Assay Set Up:
(§6) In a 96well round bottom plate add 50 ul LB/well for the S. aureus plate and add 50 ul EB/well for the VRE plates.
(§7) Add 50 ul of compound dilution (500 ug/ml test conc) to each of three top row wells (ie: tested in triplicate) and dilute 1 in 2 from the top row to the bottom row.
(§8) After the compound dilution, add to each well 50 ul of a 1/1000 dilution of the appropriate overnight bacterial culture, either S. aureus or the different VRE strains.
(§9) Plates are incubated at 37° C. on a slowly rotating plate incubator. • test concentrations are (in ug/ml) 125, 62.5, 31.25, 15.6, 7.8, 3.9, 1.9, 0.98 • final DMSO concentration in the first row of wells of the assay is 2.5% • Vancomycin is included in the assay (in triplicate) at a starting test concentration of 5 ug/ml for S. aureus and 125 ug/ml for the VRE strains Reading Results of Assay:
(§10) After incubation for 24 hrs the plates are removed and read. Inhibition of bacterial growth is indicated by lack of bacterial pellet or a clear well. In the VRE plates bacterial growth is indicated by black coloured media (EB) as well as a bacterial pellet.
(§11) Untreated control wells are included in the assay to check they all contain bacterial pellets. Uninoculated untreated control wells are included to check they all contain clear medium.
(§12) The plates are analysed for MIC and the results tabulated.

[2] = tested on: #243 E. faecium van B ST17; assay: Antibacterial assay (MIC), VRE strain #243, Enterococossel Broth, Example 1; type: cell-based, Enterococcus faecium; conditions: Enterococcus faecium, read-out: 243 (minimum inhibitory concentration)
Method: as §1
(§13) VRE strains: #243 E. faecium van B ST17 #449 E. faecium van B ST17
as §2, §3, §4, §5, §6, §7, §8, §9, §10, §11, §12

[3] = tested on: #449 E. faecium van B ST17; assay: Antibacterial assay (MIC), VRE strain #449, Enterococossel Broth, Example 1; type: cell-based, Enterococcus faecium; conditions: Enterococcus faecium, read-out: 449 (minimum inhibitory concentration)
Method: as §1, §13, §2, §3, §4, §5, §6, §7, §8, §9, §10, §11, §12

[4] = tested on: #820 E. faecium van A ST17; assay: Antibacterial assay (MIC), VRE strain #820, Enterococossel Broth, Example 1; type: cell-based, Enterococcus faecium; conditions: Enterococcus faecium, read-out: 820 (minimum inhibitory concentration)
Method: as §1
(§14) #820 E. faecium van A ST17 #987 E. faecium van B ST39
as §2, §3, §4, §5, §6, §7, §8, §9, §10, §11, §12

[5] = tested on: #987 E. faecium van B ST39; assay: Antibacterial assay (MIC), VRE strain #987, Enterococossel Broth, Example 1; type: cell-based, Enterococcus faecium; conditions: Enterococcus faecium, read-out: 987 (minimum inhibitory concentration)
Method: as §1, §14, §2, §3, §4, §5, §6, §7, §8, §9, §10, §11, §12

[6] = Example 1 compounds, S. aureus ATCC 6538P, 24 hrs, 37° C., range if at least two of three values fell within it
[7] = Example 1 compounds, VRE #243 E. faecium van B, 24 hrs, 37° C.
[8] = Example 1 compounds, VRE #449 E. faecium van B, 24 hrs, 37° C.
[9] = Example 1 compounds, VRE #820 E. faecium van A, 24 hrs, 37° C.
[10] = Example 1 compounds, VRE #987 E. faecium van B, 24 hrs, 37° C.

SMILES: C=CC[C@H](NC(=O)[C@@H](CCCNC(=N)N)NC(=O)[C@@H](CCCCN)NC(=O)COc1ccc2ccccc2c1-c1c(OCC2CCC2)ccc2ccccc12)C(=O)OCc1ccccc1.Cl.Cl (atropisomer, axis not shown) [Compound 24]
- MIC [1, 6]: 0.99 to 15.6 µg/mL
- MIC [2, 7]: 15.7 to 62.5 µg/mL
- MIC [3, 8]: 15.7 to 62.5 µg/mL
- MIC [4, 9]: 15.7 to 62.5 µg/mL
- MIC [5, 10]: 15.7 to 62.5 µg/mL

SMILES: C=CC[C@H](NC(=O)[C@@H](CCCNC(=N)N)NC(=O)[C@@H](CCCCN)NC(=O)COc1ccc2ccccc2c1-c1c(OCC(C)C)ccc2ccccc12)C(=O)OCc1ccccc1.Cl.Cl (atropisomer, axis not shown) [Compound 25]
- MIC [1, 6]: 0.99 to 15.6 µg/mL
- MIC [2, 7]: 15.7 to 62.5 µg/mL
- MIC [3, 8]: 15.7 to 62.5 µg/mL
- MIC [4, 9]: 15.7 to 62.5 µg/mL
- MIC [5, 10]: 15.7 to 62.5 µg/mL

SMILES: C=CC[C@H](NC(=O)[C@@H](CCCNC(=N)N)NC(=O)[C@@H](CCCCN)NC(=O)COc1ccc2ccccc2c1-c1c(OCCCCC)ccc2ccccc12)C(=O)OCc1ccccc1.Cl.Cl (atropisomer, axis not shown) [Compound 26]
- MIC [1, 6]: 0.99 to 15.6 µg/mL
- MIC [2, 7]: 15.7 to 62.5 µg/mL
- MIC [3, 8]: 15.7 to 62.5 µg/mL
- MIC [4, 9]: 15.7 to 62.5 µg/mL
- MIC [5, 10]: 15.7 to 62.5 µg/mL

SMILES: CC(C)C[C@H](NC(=O)[C@@H](CCCNC(=N)N)NC(=O)[C@@H](CCCCN)NC(=O)COc1ccc2ccccc2c1-c1c(OCCc2ccccc2)ccc2ccccc12)C(=O)OCc1ccccc1.Cl.Cl (atropisomer, axis not shown) [Compound 28]
- MIC [1, 6]: 0.99 to 15.6 µg/mL
- MIC [2, 7]: 15.7 to 62.5 µg/mL
- MIC [3, 8]: 15.7 to 62.5 µg/mL
- MIC [4, 9]: 15.7 to 62.5 µg/mL
- MIC [5, 10]: 15.7 to 62.5 µg/mL

SMILES: C=CC[C@H](NC(=O)[C@@H](CCCNC(=N)N)NC(=O)[C@@H](CCCCN)NC(=O)COc1ccc2ccccc2c1-c1c(OCCC(C)C)ccc2ccccc12)C(=O)OCc1ccccc1.Cl.Cl (atropisomer, axis not shown) [Compound 29]
- MIC [1, 6]: 0.99 to 15.6 µg/mL
- MIC [2, 7]: 15.7 to 62.5 µg/mL
- MIC [3, 8]: 0.99 to 15.6 µg/mL
- MIC [4, 9]: 0.99 to 15.6 µg/mL
- MIC [5, 10]: 15.7 to 62.5 µg/mL

SMILES: Cl.Cl.NCCCC[C@@H](NC(=O)CCCOc1ccc2ccccc2c1-c1c(OCCCC(=O)N[C@H](CCCCN)C(=O)OCc2ccccc2)ccc2ccccc12)C(=O)OCc1ccccc1 (atropisomer, axis not shown) [Compound 34]
- MIC [1, 6]: 0.99 to 15.6 µg/mL
- MIC [2, 7]: > 62.6 µg/mL
- MIC [3, 8]: 15.7 to 62.5 µg/mL
- MIC [4, 9]: 15.7 to 62.5 µg/mL
- MIC [5, 10]: > 62.6 µg/mL

SMILES: Cl.Cl.NCCCC[C@@H](NC(=O)CCCOc1ccc2ccccc2c1-c1c(OCCCC(=O)N[C@H](CCCCN)C(=O)OCc2cccc3ccccc23)ccc2ccccc12)C(=O)OCc1cccc2ccccc12 (atropisomer, axis not shown) [Compound 35]
- MIC [1, 6]: 0.99 to 15.6 µg/mL
- MIC [2, 7]: > 62.6 µg/mL
- MIC [3, 8]: > 62.6 µg/mL
- MIC [4, 9]: 15.7 to 62.5 µg/mL
- MIC [5, 10]: > 62.6 µg/mL

SMILES: Cl.Cl.N=C(N)NCCCC[C@@H](NC(=O)CCCOc1ccc2ccccc2c1-c1c(OCCCC(=O)N[C@H](CCCCNC(=N)N)C(=O)OCc2ccccc2)ccc2ccccc12)C(=O)OCc1ccccc1 (atropisomer, axis not shown) [Compound 39]
- MIC [1, 6]: 0.99 to 15.6 µg/mL
- MIC [2, 7]: > 62.6 µg/mL
- MIC [3, 8]: 15.7 to 62.5 µg/mL
- MIC [4, 9]: 15.7 to 62.5 µg/mL
- MIC [5, 10]: > 62.6 µg/mL

SMILES: Cl.Cl.N=C(N)NCCCC[C@@H](NC(=O)CCCOc1ccc2ccccc2c1-c1c(OCCCC(=O)N[C@H](CCCCNC(=N)N)C(=O)Oc2cccc3ccccc23)ccc2ccccc12)C(=O)Oc1cccc2ccccc12 (atropisomer, axis not shown) [Compound 40]
- MIC [1, 6]: 0.99 to 15.6 µg/mL
- MIC [2, 7]: > 62.6 µg/mL
- MIC [3, 8]: > 62.6 µg/mL
- MIC [4, 9]: 15.7 to 62.5 µg/mL
- MIC [5, 10]: > 62.6 µg/mL

SMILES: C=CCOc1ccc2ccccc2c1-c1c(OCC(=O)N[C@H](CCCN)C(=O)Nc2cccc(C(=O)OC)c2)ccc2ccccc12.Cl (atropisomer, axis not shown) [Compound 41]
- MIC [1, 6]: 0.99 to 15.6 µg/mL
- MIC [2, 7]: > 62.6 µg/mL
- MIC [3, 8]: > 62.6 µg/mL
- MIC [4, 9]: > 62.6 µg/mL
- MIC [5, 10]: > 62.6 µg/mL

SMILES: C=CCOc1ccc2ccccc2c1-c1c(OCC(=O)N[C@H](CCCN)C(=O)Nc2cccc(C(=O)OCc3ccccc3)c2)ccc2ccccc12.Cl (atropisomer, axis not shown) [Compound 42]
- MIC [1, 6]: 15.7 to 62.5 µg/mL
- MIC [2, 7]: > 62.6 µg/mL
- MIC [3, 8]: > 62.6 µg/mL
- MIC [4, 9]: > 62.6 µg/mL
- MIC [5, 10]: > 62.6 µg/mL

SMILES: C=CCOc1ccc2ccccc2c1-c1c(OCC(=O)N[C@H](CCCNC(=N)N)C(=O)Nc2cccc(C(=O)OC)c2)ccc2ccccc12.Cl (atropisomer, axis not shown) [Compound 44]
- MIC [1, 6]: 0.99 to 15.6 µg/mL
- MIC [2, 7]: > 62.6 µg/mL
- MIC [3, 8]: > 62.6 µg/mL
- MIC [4, 9]: 15.7 to 62.5 µg/mL
- MIC [5, 10]: > 62.6 µg/mL

SMILES: C=CCOc1ccc2ccccc2c1-c1c(OCC(=O)N[C@H](CCCNC(=N)N)C(=O)Nc2cccc(C(=O)OCc3ccccc3)c2)ccc2ccccc12.Cl (atropisomer, axis not shown) [Compound 45]
- MIC [1, 6]: 0.99 to 15.6 µg/mL
- MIC [2, 7]: 15.7 to 62.5 µg/mL
- MIC [3, 8]: 15.7 to 62.5 µg/mL
- MIC [4, 9]: 15.7 to 62.5 µg/mL
- MIC [5, 10]: 15.7 to 62.5 µg/mL

SMILES: C=CCOc1ccc2ccccc2c1-c1c(OCC(=O)N[C@H](CCCNC(=N)N)C(=O)Nc2cccc(C(=O)NOCc3ccccc3)c2)ccc2ccccc12.Cl (atropisomer, axis not shown) [Compound 46]
- MIC [1, 6]: 0.99 to 15.6 µg/mL
- MIC [2, 7]: > 62.6 µg/mL
- MIC [3, 8]: > 62.6 µg/mL
- MIC [4, 9]: > 62.6 µg/mL
- MIC [5, 10]: > 62.6 µg/mL

SMILES: CCC(C)[C@H](NC(=O)[C@@H](CCCNC(=N)N)NC(=O)[C@@H](CCCCN)NC(=O)COc1ccc2ccccc2c1-c1c(OCCC(C)C)ccc2ccccc12)C(=O)OCc1ccccc1.Cl.Cl (stereo partly drawn) [Compound 3]
- MIC [1, 6]: 0.99 to 15.6 µg/mL
- MIC [2, 7]: 15.7 to 62.5 µg/mL
- MIC [3, 8]: 15.7 to 62.5 µg/mL
- MIC [4, 9]: 15.7 to 62.5 µg/mL
- MIC [5, 10]: 15.7 to 62.5 µg/mL

SMILES: CC(C)CCOc1ccccc1-c1ccccc1OCC(=O)N[C@H](CCCCN)C(=O)N[C@H](CCCNC(=N)N)C(=O)N[C@@H](CC(C)C)C(=O)OCc1ccccc1.Cl.Cl [Compound 11]
- MIC [1, 6]: 0.99 to 15.6 µg/mL
- MIC [2, 7]: 15.7 to 62.5 µg/mL
- MIC [3, 8]: 15.7 to 62.5 µg/mL
- MIC [4, 9]: 15.7 to 62.5 µg/mL
- MIC [5, 10]: 15.7 to 62.5 µg/mL

SMILES: C=CC[C@H](NC(=O)[C@@H](CCCNC(=N)N)NC(=O)[C@@H](CCCCN)NC(=O)COc1ccc2ccccc2c1-c1c(OCC(C)(C)C)ccc2ccccc12)C(=O)OCc1ccccc1 [Compound 27]
- MIC [1, 6]: 0.99 to 15.6 µg/mL (≈ 1.12 to 17.6 µM)
- MIC [2, 7]: 15.7 to 62.5 µg/mL (≈ 17.7 to 70.5 µM)
- MIC [3, 8]: 15.7 to 62.5 µg/mL (≈ 17.7 to 70.5 µM)
- MIC [4, 9]: 15.7 to 62.5 µg/mL (≈ 17.7 to 70.5 µM)
- MIC [5, 10]: > 62.6 µg/mL

SMILES: NCCCC[C@@H](NC(=O)CCCOc1ccc2ccccc2c1-c1c(OCCCC(=O)N[C@H](CCCCN)C(=O)OCc2ccccn2)ccc2ccccc12)C(=O)OCc1ccccn1 [Compound 36]
- MIC ([1]; 24 h): > 62.6 µg/mL
- MIC ([2]; VRE, 24 h): > 62.6 µg/mL
- MIC ([3]; VRE, 24 h): > 62.6 µg/mL
- MIC ([4]; VRE, 24 h): > 62.6 µg/mL
- MIC ([5]; VRE, 24 h): > 62.6 µg/mL
